Source: ChEMBL document CHEMBL1130751, “Synthesis and 5 alpha-reductase inhibitory activity of 8-substituted benzo[f]quinolinones derived from palladium mediated coupling reactions” (Bioorg Med Chem Lett, 1998)

Legend:
[1] = target: T1, 3-oxo-5-alpha-steroid 4-dehydrogenase 1 (Homo sapiens, UniProt P18405); experiment: Inhibitory activity against Steroid 5-alpha-reductase type I enzyme based on the conversion of [3H]-T to [3H]DHT in nuclear membrane preparations from human scalp; type: cell membranes
T1 sequence (P18405 whole entry): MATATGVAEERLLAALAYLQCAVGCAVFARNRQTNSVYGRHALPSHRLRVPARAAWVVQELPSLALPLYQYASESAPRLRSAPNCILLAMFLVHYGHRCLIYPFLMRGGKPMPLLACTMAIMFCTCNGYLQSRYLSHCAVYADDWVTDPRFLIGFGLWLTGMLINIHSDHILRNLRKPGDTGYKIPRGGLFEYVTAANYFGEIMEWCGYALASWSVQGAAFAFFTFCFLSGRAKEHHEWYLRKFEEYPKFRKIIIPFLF

[2] = target: T2, 3-oxo-5-alpha-steroid 4-dehydrogenase 2 (Homo sapiens, UniProt P31213); experiment: Inhibitory activity against Steroid 5-alpha-reductase type 2 as [3H]T to [3H]-DHT conversion human prostate nuclear membrane; type: tissue-based, Prostate gland
T2 sequence (P31213 whole entry): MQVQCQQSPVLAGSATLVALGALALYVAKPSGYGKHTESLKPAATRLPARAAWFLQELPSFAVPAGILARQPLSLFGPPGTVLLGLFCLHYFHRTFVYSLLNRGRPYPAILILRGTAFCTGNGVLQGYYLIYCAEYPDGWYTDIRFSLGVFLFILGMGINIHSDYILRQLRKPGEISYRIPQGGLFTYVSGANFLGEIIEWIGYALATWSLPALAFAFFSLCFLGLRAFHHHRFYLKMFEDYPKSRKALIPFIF

[3] = target: T1, 3-oxo-5-alpha-steroid 4-dehydrogenase 1; experiment: Inhibitory activity against Steroid 5-alpha-reductase type 1 enzyme based on the conversion of [3H]T to [3H]-DHT in nuclear membrane preparations from human scalp; type: cell membranes

| IC50 [1] [nM] | IC50 [2] [nM] | IC50 [3] [nM] | SMILES |
| --- | --- | --- | --- |
| 21 | 52 |  | CN1C(=O)CC[C@]2(C)c3ccc(C#Cc4ccccc4)cc3CC[C@@H]12 |
|  | 870 |  | CN1C(=O)CC[C@]2(C)c3ccc(CC(=O)O)cc3CC[C@@H]12 |
|  | > 10000 | > 10000 | CN1C(=O)CC[C@]2(C)c3ccc(CC(N)=O)cc3CC[C@@H]12 |
| 6 | 1400 |  | CN1C(=O)CC[C@]2(C)c3ccc(/C=C\c4ccccc4)cc3CC[C@@H]12 |
|  | > 10000 | > 10000 | CCN(CC)C(=O)Cc1ccc2c(c1)CC[C@H]1N(C)C(=O)CC[C@]21C |
|  | 320 | 3.4 | CN1C(=O)CC[C@]2(C)c3ccc(/C=C/c4cnc5ccccc5c4)cc3CC[C@@H]12 |
|  | > 10000 | 59 | CN1C(=O)CC[C@]2(C)c3ccc(-c4ccco4)cc3CC[C@@H]12 |
| 23 | 180 |  | CN1C(=O)CC[C@]2(C)c3ccc(/C=C/c4ccccc4)cc3CC[C@@H]12 |
|  | 520 | > 10000 | CN1C(=O)CC[C@]2(C)c3ccc(CC(=O)Nc4ccccc4)cc3CC[C@@H]12 |
|  | 1340 | 63 | CN1C(=O)CC[C@]2(C)c3ccc(/C=C/c4cncc5ccccc45)cc3CC[C@@H]12 |
|  | 550 | 32 | CN1C(=O)CC[C@]2(C)c3ccc(/C=C/c4ccc5ccccc5n4)cc3CC[C@@H]12 |
|  | > 10000 | > 10000 | CN1C(=O)CC[C@]2(C)c3ccc(-c4cccs4)cc3CC[C@@H]12 |
|  | > 10000 | > 10000 | CN1C(=O)CC[C@]2(C)c3ccc(CC(=O)NC(C)(C)C)cc3CC[C@@H]12 |
